Measured values published in publication PMC6961116, “Scaffold-hopping identifies furano[2,3-d]pyrimidine amides as potent Notum inhibitors” (Bioorganic & Medicinal Chemistry Letters, 2020).
Where two headings read alike, the source gives them in different places.

Tests used:
Notum(81–451 Cys330Ser) [1] = target: T1, Notum(81–451 Cys330Ser) (Homo sapiens, UniProt Q6P988, C330S); test: Notum biochemical OPTS assay (carboxylesterase activity); conditions: for IC50: OPTS substrate, 1 h incubation, geometric mean ± s.d.
T1 sequence (Q6P988 81-451 C330S): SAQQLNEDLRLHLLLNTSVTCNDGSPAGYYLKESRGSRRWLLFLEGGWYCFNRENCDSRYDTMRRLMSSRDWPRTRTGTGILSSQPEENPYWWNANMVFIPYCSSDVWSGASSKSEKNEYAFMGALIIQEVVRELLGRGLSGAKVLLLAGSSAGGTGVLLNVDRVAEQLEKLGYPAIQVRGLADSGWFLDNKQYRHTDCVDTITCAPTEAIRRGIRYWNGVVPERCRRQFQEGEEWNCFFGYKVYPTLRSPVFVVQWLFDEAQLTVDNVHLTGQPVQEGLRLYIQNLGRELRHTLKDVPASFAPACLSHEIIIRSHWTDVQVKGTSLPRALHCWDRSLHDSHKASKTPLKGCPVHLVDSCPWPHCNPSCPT

[2] = Metabolic stability in mouse liver microsomes (MLM); type: in vitro ADME; conditions: mouse liver microsomes
P-gp (MDR1) = test: MDCK-MDR1 cell permeability and efflux; type: in vitro ADME; conditions: dog; for efflux ratio: MDCK-MDR1, read-out: MDCK-MDR1 efflux ratio (ER)
MDCK-MDR1 monolayer = conditions: amides 4, cited from earlier work; for MDCK-MDR1 AB Papp: A to B direction; for MDCK-MDR1 BA Papp: B to A direction
Notum [3] = target: T2, Notum (Homo sapiens, UniProt Q6P988); test: Notum TCF/LEF reporter (Luciferase) HEK293 cell assay
T2 sequence (Q6P988 20-496): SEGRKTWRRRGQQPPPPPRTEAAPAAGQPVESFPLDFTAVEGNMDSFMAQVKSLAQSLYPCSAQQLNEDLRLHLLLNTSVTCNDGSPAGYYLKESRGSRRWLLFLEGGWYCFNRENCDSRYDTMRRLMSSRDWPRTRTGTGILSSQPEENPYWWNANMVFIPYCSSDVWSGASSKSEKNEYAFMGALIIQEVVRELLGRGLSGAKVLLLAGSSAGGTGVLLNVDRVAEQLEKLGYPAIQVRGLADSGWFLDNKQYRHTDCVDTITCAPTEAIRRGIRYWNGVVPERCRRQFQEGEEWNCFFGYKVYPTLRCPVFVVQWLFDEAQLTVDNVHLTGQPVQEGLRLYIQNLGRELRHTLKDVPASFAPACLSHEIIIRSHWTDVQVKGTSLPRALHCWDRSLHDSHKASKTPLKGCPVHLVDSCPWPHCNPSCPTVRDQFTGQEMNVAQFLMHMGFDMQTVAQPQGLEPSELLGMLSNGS
From the text: Selected compounds were screened for inhibition of Notum activity in a Wnt/β-catenin signaling pathway TCF/LEF Reporter (Luciferase) HEK293 cell line and Notum occupancy in a FP-biotin competition assay.[15], [18]

[4] = Hydrolytic stability in citrate buffer; type: physicochemical; conditions: citrate buffer 0.1 M, pH 4, up to 24 h, UPLC-MS
Notum [5] = target: T3, Notum (Homo sapiens, UniProt Q6P988, C330S); test: Notum enzymatic stability (biochemical assay without OPTS substrate); conditions: up to 72 h
T3 sequence (Q6P988 81-451 C330S): T1 sequence (Q6P988 81-451 C330S)

Notum(81–451 Cys330Ser) [6] = target: T1, Notum(81–451 Cys330Ser); conditions: thieno[3,2-d]pyrimidine amides 4; OPTS assay; geometric mean ± s.d.; cited from earlier work
[7] = MDCK-MDR1, A to B direction, read-out: MDCK-MDR1 AB Papp
[8] = MDCK-MDR1, B to A direction, read-out: MDCK-MDR1 BA Papp
[9] = read-out: Notum EC50 (TCF-LEF), rWNT3a 100 ng/mL, Notum 500 ng/mL, geometric mean ± s.d., n = 3–4

Compound | IC50 (Notum(81–451 Cys330Ser) [1]) | MLM Cli [2] | Papp (P-gp (MDR1); [7]) | Papp (P-gp (MDR1); [8]) | efflux ratio (P-gp (MDR1)) | other results
O=C(O)CSc1ncnc2c1ccn2Cc1ccccc1 [Compound 16, 2-((7-benzyl-7H-pyrrolo[2,3-d]pyrimidin-4-yl)thio)acetic acid] | 50000 nM | – | – | – | – | –
Cc1sc2ncnc(SCC(=O)N3CCn4c(nnc4C4CC4)C3)c2c1Cl [Compound 5r] | 27 ± 3 nM | 53 µL/min/mg | 0.8 ×10⁻⁶ cm/s | 78 ×10⁻⁶ cm/s | 97 | –
Cc1sc2ncnc(SCC(=O)N3CCn4ncnc4C3)c2c1Cl [Compound 5t] | 15 ± 3 nM | 53 µL/min/mg | 19 ×10⁻⁶ cm/s | 49 ×10⁻⁶ cm/s | 2.6 | –
Cc1sc2ncnc(SCC(=O)N3CC(=O)N4CCCC4C3)c2c1Cl (stereo not drawn) [Compound 5k] | 20 ± 4 nM | 63 µL/min/mg | 7 ×10⁻⁶ cm/s | 51 ×10⁻⁶ cm/s | 7.3 | –
O=C(CSc1ncnc2c(C3CC3)c(Cl)sc12)N1CCn2cnnc2C1 [Compound 4f] | – | – | – | – | – | MDCK-MDR1 AB Papp (MDCK-MDR1 monolayer): 0.95 ×10⁻⁶ cm/s; MDCK-MDR1 BA Papp (MDCK-MDR1 monolayer): 93 ×10⁻⁶ cm/s
CCN1CCN(C(=O)CSc2ncnc3sc(C)c(Cl)c23)CC1=O [Compound 5h] | 4.2 ± 0.4 nM | 100 µL/min/mg | 1.1 ×10⁻⁶ cm/s | 37 ×10⁻⁶ cm/s | 34 | –
Cc1sc2ncnc(SCC(=O)N3CC(=O)N(C)C3)c2c1C(F)(F)F [Compound 23] | 7 ± 2.5 nM | 24 µL/min/mg | – | – | – | EC50 (Notum [3]; [9]): 170 nM
Cc1sc2ncnc(SCC(=O)N3CCOCC3)c2c1Cl [Compound 5c] | 69 ± 10 nM | – | – | – | – | –
O=C(O)CSc1ncnc2[nH]cc(Cl)c12 [Compound 14] | 20000 nM | – | – | – | – | –
Cc1sc2ncnc(SCC(=O)N3CCn4c(nnc4C(F)(F)F)C3)c2c1Cl [Compound 5s] | 38 ± 3 nM | 93 µL/min/mg | 15 ×10⁻⁶ cm/s | 85 ×10⁻⁶ cm/s | 5.7 | –
Cc1sc2ncnc(SCC(=O)N(C)C)c2c1Cl [Compound 5a] | 15 ± 6 nM | 360 µL/min/mg | – | – | – | –
Cc1sc2ncnc(SCC(=O)O)c2c1C(F)(F)F [Compound 10] | 3.9 ± 0.7 nM | – | – | – | – | –
CCc1nnc2n1CCN(C(=O)CSc1ncnc3sc(C)c(Cl)c13)C2 [Compound 5q] | 23 ± 5 nM | 38 µL/min/mg | 0.8 ×10⁻⁶ cm/s | 65 ×10⁻⁶ cm/s | 81 | –
Cc1c(C(F)(F)F)sc2ncnc(SCC(=O)O)c12 [Compound 9] | 1 ± 0.4 nM | – | – | – | – | –
Cc1nn(C)c2ncnc(SCC(=O)O)c12 [Compound 17] | 1100 nM | – | – | – | – | fold weaker Notum inhibition than 1 (Notum(81–451 Cys330Ser) [1]; relative to 1): 1000 fold
Cc1sc2ncnc(SCC(=O)N3CCCCC3)c2c1Cl [Compound 5b] | 220 ± 12 nM | – | – | – | – | –
Cc1sc2ncnc(SCC(=O)N3CCn4nc(C(F)(F)F)nc4C3)c2c1Cl [Compound 5v] | 18 ± 5 nM | 140 µL/min/mg | 15 ×10⁻⁶ cm/s | 27 ×10⁻⁶ cm/s | 1.8 | –
Cc1cc2c(SCC(=O)O)ncnc2s1 [Compound 6] | 790 ± 70 nM | – | – | – | – | –
Cc1sc2ncnc(SCC(=O)N3CCn4c(C)nnc4C3)c2c1Cl [Compound 5p] | 16 ± 2 nM | 15 µL/min/mg | 0.5 ×10⁻⁶ cm/s | 51 ×10⁻⁶ cm/s | > 100 | –
Cc1nc2n(n1)CCN(C(=O)CSc1ncnc3sc(C)c(Cl)c13)C2 [Compound 5u] | 11 ± 6 nM | 37 µL/min/mg | 17 ×10⁻⁶ cm/s | 44 ×10⁻⁶ cm/s | 2.6 | –
Cc1sc2ncnc(SCC(=O)N3CCNC(=O)C3)c2c1Cl [Compound 5d] | 5.8 ± 4 nM | 19 µL/min/mg | 12 ×10⁻⁶ cm/s | 66 ×10⁻⁶ cm/s | 5.5 | –

Compound | IC50 (Notum(81–451 Cys330Ser) [1]) | MLM Cli [2] | Papp (P-gp (MDR1); [7]) | Papp (P-gp (MDR1); [8]) | efflux ratio (P-gp (MDR1)) | other results
CN1CN(C(=O)CSc2ncnc3c(C4CC4)c(Cl)sc23)CC1=O [Compound 20] | – | 45 µL/min/mg | 5.9 ×10⁻⁶ cm/s | 12 ×10⁻⁶ cm/s | 2 | EC50 (Notum [3]): < 250 nM; EC50 (Notum [3]; [9]): 110 nM
Cc1c(C#N)sc2ncnc(SCC(=O)O)c12 [Compound 11, 2-((6-cyano-5-methylthieno[2,3-d]pyrimidin-4-yl)thio)acetic acid] | 25 ± 4 nM | – | – | – | – | –
N#Cc1sc2c(SCC(=O)O)ncnc2c1C1CC1 [Compound 12] | 8.1 nM | – | – | – | – | –
Cc1sc2ncnc(SCC(=O)N3CCn4cnnc4C3)c2c1Cl [Compound 5f] | 3.2 ± 0.1 nM | 13 µL/min/mg | 0.6 ×10⁻⁶ cm/s | 56 ×10⁻⁶ cm/s | 93 | Hydrolytic stability [4]: only parent was detected; Notum enzymatic stability (Notum [5]): only parent was detected
O=C(O)CSc1ncnc2[nH]ccc12 [Compound 13] | 77000 nM | – | – | – | – | –
O=C1CN(C(=O)CSc2ncnc3c(C4CC4)c(Cl)sc23)CCN1 [Compound 4d] | – | – | – | – | – | IC50 (Notum(81–451 Cys330Ser) [6]): < 10 nM; MDCK-MDR1 AB Papp (MDCK-MDR1 monolayer): 7.9 ×10⁻⁶ cm/s; MDCK-MDR1 BA Papp (MDCK-MDR1 monolayer): 65 ×10⁻⁶ cm/s
Cc1sc2ncnc(SCC(=O)N3CC(=O)N(CC(F)(F)F)C3)c2c1Cl [Compound 5o] | 3.9 ± 0.4 nM | 140 µL/min/mg | – | – | – | –
Cc1sc2ncnc(SCC(=O)N3CNC(=O)C3)c2c1Cl [Compound 5e] | 2.7 ± 0.5 nM | 65 µL/min/mg | 14 ×10⁻⁶ cm/s | 82 ×10⁻⁶ cm/s | 5.9 | –
Cc1oc2ncnc(SCC(=O)O)c2c1C [Compound 18] | 50 ± 14 nM | – | – | – | – | fold weaker Notum inhibition than 7 (Notum(81–451 Cys330Ser) [1]; relative to thiophene analogue 7): 10 fold
Cc1c(C(F)(F)F)oc2ncnc(SCC(=O)O)c12 [Compound 19] | 3.2 ± 0.5 nM | – | – | – | – | –
O=C1CN(C(=O)CSc2ncnc3c(C4CC4)c(Cl)sc23)CN1 [Compound 4e] | – | – | – | – | – | MDCK-MDR1 AB Papp (MDCK-MDR1 monolayer): 3.8 ×10⁻⁶ cm/s; MDCK-MDR1 BA Papp (MDCK-MDR1 monolayer): 14 ×10⁻⁶ cm/s
CCN1CN(C(=O)CSc2ncnc3sc(C)c(Cl)c23)CC1=O [Compound 5m] | 2.6 ± 0.1 nM | 43 µL/min/mg | 35 ×10⁻⁶ cm/s | 51 ×10⁻⁶ cm/s | 1.5 | –
Cc1sc2ncnc(SCC(=O)N3CC(=O)NC(C)C3)c2c1Cl (stereo not drawn) [Compound 5i] | 33 ± 5 nM | – | – | – | – | –
Cc1sc2ncnc(SCC(=O)N3CC(=O)N(C4CC4)C3)c2c1Cl [Compound 5n] | 3.8 ± 1.3 nM | 49 µL/min/mg | – | – | – | –
Cc1c(C(F)(F)F)sc2ncnc(SCC(=O)N3CC(=O)N(C)C3)c12 [Compound 22] | 1.6 ± 0.1 nM | 27 µL/min/mg | 31 ×10⁻⁶ cm/s | 35 ×10⁻⁶ cm/s | 1.1 | EC50 (Notum [3]; [9]): 210 nM
Cc1nc(SCC(=O)O)c2c(C)c(C)sc2n1 [Compound 8] | 2100 nM | – | – | – | – | –
Cc1sc2ncnc(SCC(=O)N3CCN(C)C(=O)C3)c2c1Cl [Compound 5g] | 6.2 ± 0.5 nM | 33 µL/min/mg | 23 ×10⁻⁶ cm/s | 62 ×10⁻⁶ cm/s | 2.7 | –
Cc1sc2ncnc(SCC(=O)N3CC(=O)N(C)C3)c2c1C [Compound 21] | 9.4 ± 1.5 nM | 31 µL/min/mg | 21 ×10⁻⁶ cm/s | 45 ×10⁻⁶ cm/s | 2.1 | Activation of Wnt signaling (in words) (Notum [3]; TCF/LEF reporter, rWNT3a 100 ng/mL, Notum 500 ng/mL): only modest activation of Wnt signaling; EC50 (Notum [3]; [9]): 1300 nM
Cn1ccc2c(SCC(=O)O)ncnc21 [Compound 15, 2-((7-methyl-7H-pyrrolo[2,3-d]pyrimidin-4-yl)thio)acetic acid] | 15000 nM | – | – | – | – | –
Cc1sc2ncnc(SCC(=O)N3CC(=O)NC(C)(C)C3)c2c1Cl [Compound 5j] | 450 ± 200 nM | – | – | – | – | –
